Results on 26 compounds are retold here after patent US20240150345A1, “GCN2 MODULATING COMPOUNDS AND USES THEREOF” (HiberCell, Inc., priority 2021, published 2024).

In general, IC50 refers to the concentration at which inhibition is half-maximal. A higher IC50 goes with weaker potency.

The target of the assay is T1, GCN2 (Homo sapiens, UniProt Q9P2K8).
T1 construct: purchased Carma Biosciences (so in the source)
T1 sequence (Q9P2K8 whole entry): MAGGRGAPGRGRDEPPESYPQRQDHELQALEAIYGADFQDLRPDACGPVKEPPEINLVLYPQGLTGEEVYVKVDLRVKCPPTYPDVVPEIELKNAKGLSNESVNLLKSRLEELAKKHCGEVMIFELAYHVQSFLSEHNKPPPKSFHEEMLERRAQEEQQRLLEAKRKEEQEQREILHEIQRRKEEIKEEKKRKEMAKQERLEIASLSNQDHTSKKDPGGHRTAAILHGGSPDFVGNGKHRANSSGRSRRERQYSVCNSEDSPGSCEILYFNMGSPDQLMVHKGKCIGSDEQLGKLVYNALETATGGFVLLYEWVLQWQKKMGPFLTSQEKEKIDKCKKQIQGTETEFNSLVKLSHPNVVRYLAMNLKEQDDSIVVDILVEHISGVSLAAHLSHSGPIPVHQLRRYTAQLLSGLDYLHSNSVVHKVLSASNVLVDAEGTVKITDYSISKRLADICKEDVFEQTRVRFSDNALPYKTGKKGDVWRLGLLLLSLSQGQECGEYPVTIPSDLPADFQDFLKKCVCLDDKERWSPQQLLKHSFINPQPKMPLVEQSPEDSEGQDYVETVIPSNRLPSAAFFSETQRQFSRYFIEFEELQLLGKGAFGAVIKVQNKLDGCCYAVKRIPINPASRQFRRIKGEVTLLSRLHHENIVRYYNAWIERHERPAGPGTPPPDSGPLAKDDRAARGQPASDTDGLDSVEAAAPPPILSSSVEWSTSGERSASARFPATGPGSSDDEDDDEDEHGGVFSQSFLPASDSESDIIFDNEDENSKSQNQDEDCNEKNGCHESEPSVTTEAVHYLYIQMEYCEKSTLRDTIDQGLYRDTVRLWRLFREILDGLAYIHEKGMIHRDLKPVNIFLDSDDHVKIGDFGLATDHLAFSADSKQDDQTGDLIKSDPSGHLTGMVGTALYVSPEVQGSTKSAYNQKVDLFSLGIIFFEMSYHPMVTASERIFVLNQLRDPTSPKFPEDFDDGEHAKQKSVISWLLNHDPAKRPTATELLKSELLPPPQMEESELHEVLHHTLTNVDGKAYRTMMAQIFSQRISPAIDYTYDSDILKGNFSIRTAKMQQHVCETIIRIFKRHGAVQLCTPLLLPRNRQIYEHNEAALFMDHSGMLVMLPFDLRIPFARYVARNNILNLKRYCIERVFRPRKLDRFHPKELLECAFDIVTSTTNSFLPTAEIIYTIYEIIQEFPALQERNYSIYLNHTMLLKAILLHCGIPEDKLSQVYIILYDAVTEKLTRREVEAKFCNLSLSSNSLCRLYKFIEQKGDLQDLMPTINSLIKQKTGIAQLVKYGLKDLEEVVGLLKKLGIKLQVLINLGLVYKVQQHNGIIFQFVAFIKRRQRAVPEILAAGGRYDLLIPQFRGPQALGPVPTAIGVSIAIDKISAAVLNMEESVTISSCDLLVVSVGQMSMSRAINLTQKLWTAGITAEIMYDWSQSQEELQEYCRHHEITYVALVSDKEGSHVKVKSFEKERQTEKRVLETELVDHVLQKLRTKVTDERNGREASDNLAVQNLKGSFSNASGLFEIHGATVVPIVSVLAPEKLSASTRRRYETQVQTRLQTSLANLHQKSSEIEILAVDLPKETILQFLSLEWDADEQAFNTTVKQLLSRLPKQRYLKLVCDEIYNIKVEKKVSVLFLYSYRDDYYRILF
Put plainly: TR-FRET biochemical assay for inhibition of GCN2 activity. Conditions: 2 nM GCN2, 100 nM GFP-eIF2α, 150 μM ATP, 1.5 hours at 25° C. As to the method: Exemplary compounds from the above Examples were tested for ability to inhibit GCN2 activity using a time resolved fluorescence energy transfer (TR-FRET) assay. Assay procedures and results are described below for Examples 12-105.
GCN2 protein was obtained from Carma Biosciences (cat #05-153). The protein was diluted in assay buffer (ThermoFisher Scientific, #PV6135), 2 mM dithiothreitol (DTT), to obtain a final concentration of 2 nM and 5 μL was plated in a 384-well white assay plate. Test compounds were serially diluted to 11 concentrations by 3-fold dilution in DMS0 and 10 nL of stock was plated into 384 well white assay plate. DMS0 was used as a vehicle control. GFP-eIF2α protein was obtained from ThermoFisher (cat #PV4809). The protein was diluted in assay buffer to a 2× concentration of 200 nM along with 300 μM ATP (final concentration of 100 nM GFP-eIF2α and 150 μM ATP) in the presence of 2 mM DTT and a […] was added to each well containing the GCN2 protein and test compound. The plate was incubated in the dark at 25° C. for 1.5 hours, shaking at 1250 rpm. Tb-anti P-eIF2α (ThermoFisher cat #PV4815) was diluted to a to a concentration of 1 nM in TR-FRET Dilution Buffer (ThermoFisher cat #PV3574). 10 μL of the Tb-anti P-eIF2a solution was added to the TR-FRET reaction. The plate was incubated in the dark for 2 h at 25° C. shaking at 600 rpm. The FRET signal from the plate was read on a Envision (PerkinElmer) plate reader: • Label 1: Excitation: 340 nm, bandwidth 30 nm; Emission: 495 nm, bandwidth 10 nm. Lag time: 100 μsec. Integration time: 400 μsec. Flashes: 30. • Label 2: Excitation: 340 nm, bandwidth 30 nm; Emission: 520 nm, bandwidth 25 nm. Lag time: 100 μsec. Integration time: 400 μsec. Flashes: 30
The data were analyzed using GraphPad Prism employing a 4-parameter sigmoidal curve fit.
In general terms: TR-FRET usually uses a lanthanide donor and a delayed reading to cut background.
`COc1ncc(F)cc1S(=O)(=O)Nc1ncc(F)c(COc2cnc3[nH]nc(C)c3c2)c1F` [Compound 56, N-[3,5-difluoro-4-[([3-methyl-1H-pyrazolo[3,4-b]pyridin-5-yl]oxy)methyl]pyridin-2-yl]-5-fluoro-2-methoxypyridine-3-sulfonamide] gave an IC50 of under 50 nM. Take `COc1ncc(F)cc1S(=O)(=O)Nc1ccc(F)c(NCc2cnc3[nH]nc(C)c3c2)c1F` [Compound 57, N-[2,4-difluoro-3-[([3-methyl-1H-pyrazolo[3,4-b]pyridin-5-yl]methyl)amino]phenyl]-5-fluoro-2-methoxypyridine-3-sulfonamide]: the half-inhibitory concentration (IC50) fell in the range of 50 to 500 nM.

On to `COc1ncc(Cl)cc1S(=O)(=O)Nc1ccc(F)c(NCc2cnc3[nH]nc(C)c3c2)c1F` [Compound 58, 5-chloro-N-[2,4-difluoro-3-[([3-methyl-1H-pyrazolo[3,4-b]pyridin-5-yl]methyl)amino]phenyl]-2-methoxypyridine-3-sulfonamide], for which the half-inhibitory concentration (IC50) is under 50 nM. The value for `Cc1ncc(F)cc1S(=O)(=O)Nc1ccc(F)c(NCc2cnc3[nH]nc(C)c3c2)c1F` [Compound 59, N-[2,4-difluoro-3-[([3-methyl-1H-pyrazolo[3,4-b]pyridin-5-yl]methyl)amino]phenyl]-5-fluoro-2-methylpyridine-3-sulfonamide] was 50 to 500 nM. The compound `COc1ncc(Cl)cc1S(=O)(=O)Nc1ccc(F)c(COc2cnn3cncc3c2)c1F` [Compound 60, 5-chloro-N-(2,4-difluoro-3-((imidazo[1,5-b]pyridazin-3-yloxy)methyl)phenyl)-2-methoxypyridine-3-sulfonamide] showed an IC50 of under 50 nM.

In turn, `COc1ncc(F)cc1S(=O)(=O)Nc1ccc(F)c(COc2cnc3[nH]nc(C)c3c2)c1Cl` [Compound 61, N-[2-chloro-4-fluoro-3-[([3-methyl-1H-pyrazolo[3,4-b]pyridin-5-yl]oxy)methyl]phenyl]-5-fluoro-2-methoxypyridine-3-sulfonamide] came in with an IC50 of under 50 nM. In the case of `COc1ncc(F)cc1S(=O)(=O)Nc1ccc(F)c(COc2cnc3[nH]nc(C)c3c2)c1C#N` [Compound 62, N-[2-cyano-4-fluoro-3-[([3-methyl-1H-pyrazolo[3,4-b]pyridin-5-yl]oxy)methyl]phenyl]-5-fluoro-2-methoxypyridine-3-sulfonamide] it was 50 to 500 nM; in that of `COc1ncc(F)cc1S(=O)(=O)Nc1ccnc(COc2cnc3[nH]nc(C)c3c2)c1F` [Compound 63, 5-fluoro-N-[3-fluoro-2-[([3-methyl-1H-pyrazolo[3,4-b]pyridin-5-yl]oxy)methyl]pyridin-4-yl]-2-methoxypyridine-3-sulfonamide], 50 to 500 nM; in that of `COc1ncc(Cl)cc1S(=O)(=O)Nc1ccnc(COc2cnc3[nH]nc(C)c3c2)c1F` [Compound 64, 5-chloro-N-[3-fluoro-2-[([3-methyl-1H-pyrazolo[3,4-b]pyridin-5-yl]oxy)methyl]pyridin-4-yl]-2-methoxypyridine-3-sulfonamide], under 50 nM. Consider `COc1ncc(Cl)cc1S(=O)(=O)Nc1ncc(F)c(COc2cnc3[nH]nc(C)c3c2)c1F` [Compound 65, 5-chloro-N-[3,5-difluoro-4-[([3-methyl-1H-pyrazolo[3,4-b]pyridin-5-yl]oxy)methyl]pyridin-2-yl]-2-methoxypyridine-3-sulfonamide], for which the IC50 was under 50 nM. `COc1ncc(F)cc1S(=O)(=O)Nc1ncc(F)c(COc2cnc3[nH]nc(C)c3c2)c1Cl` [Compound 66, N-[3-chloro-5-fluoro-4-[([3-methyl-1H-pyrazolo[3,4-b]pyridin-5-yl]oxy)methyl]pyridin-2-yl]-5-fluoro-2-methoxypyridine-3-sulfonamide] gave an IC50 of under 50 nM. Regarding `COc1ncc(F)cc1S(=O)(=O)Nc1ccc(F)c(COc2cnc3[nH]nc(C)c3c2)n1` [Compound 67, 5-fluoro-N-[5-fluoro-6-[([3-methyl-1H-pyrazolo[3,4-b]pyridin-5-yl]oxy)methyl]pyridine-2-yl]-2-methoxypyridine-3-sulfonamide], the IC50 is over 1000 nM. `COc1ncc(Cl)cc1S(=O)(=O)Nc1ccc(F)c(COc2cnc3[nH]nc(C)c3c2)n1` [Compound 68, 5-chloro-N-[5-fluoro-6-[([3-methyl-1H-pyrazolo[3,4-b]pyridin-5-yl]oxy)methyl]pyridin-2-yl]-2-methoxypyridine-3-sulfonamide] had an IC50 of 50 to 500 nM. For the compound `C#Cc1n[nH]c2ncc(OCc3c(F)ccc(NS(=O)(=O)c4cc(F)cnc4OC)c3F)cc12` [Compound 69, N-[3-[([3-ethynyl-1H-pyrazolo[3,4-b]pyridin-5-yl]oxy)methyl]-2,4-difluorophenyl]-5-fluoro-2-methoxypyridine-3-sulfonamide], the IC50 is under 50 nM.

The compound `COc1ncc(F)cc1S(=O)(=O)Nc1ccc(F)c(COc2cnc3[nH]nc(C4CC4)c3c2)c1F` [Compound 70, N-(3-(((3-cyclopropyl-1H-pyrazolo[3,4-b]pyridin-5-yl)oxy)methyl)-2,4-difluorophenyl)-5-fluoro-2-methoxypyridine-3-sulfonamide] came in with an IC50 of under 50 nM. `COc1ncc(F)cc1S(=O)(=O)Nc1ccc(F)c(COc2cnc3[nH]c(=O)n(C)c3c2)c1F` [Compound 71, N-[2,4-difluoro-3-[([1-methyl-2-oxo-3H-imidazo[4,5-b]pyridin-6-yl]oxy)methyl]phenyl]-5-fluoro-2-methoxypyridine-3-sulfonamide]: the IC50 was under 50 nM. The value for `COc1ncc(F)cc1S(=O)(=O)Nc1ccc(F)c(COc2cnc3c(c2)C2(CC2)C(=O)N3)c1F` [Compound 72, N-[2,4-difluoro-3-([2-oxo-1H-spiro[cyclopropane-1,3-pyrrolo[2,3-b]pyridin]-5-yloxy]methyl)phenyl]-5-fluoro-2-methoxypyridine-3-sulfonamide] was under 50 nM; that for `COc1ncc(F)cc1S(=O)(=O)Nc1ccc(F)c(COc2cnc3[nH]nc(C#N)c3c2)c1F` [Compound 73, N-(3-(((3-cyano-1H-pyrazolo[3,4-b]pyridin-5-yl)oxy)methyl)-2,4-difluorophenyl)-5-fluoro-2-methoxypyridine-3-sulfonamide] was under 50 nM; that for `Cc1ncc(F)cc1S(=O)(=O)Nc1ccc(F)c(COc2cnc3[nH]nc(C)c3c2)c1Cl` [Compound 74, N-[2-chloro-4-fluoro-3-[([3-methyl-1H-pyrazolo[3,4-b]pyridin-5-yl]oxy)methyl]phenyl]-5-fluoro-2-methylpyridine-3-sulfonamide] was under 50 nM.

On to `COc1ncc(F)cc1S(=O)(=O)Nc1ccc(F)c(COc2cnc3[nH]nc(CC(F)F)c3c2)c1F` [Compound 75, N-[3-([[3-(2,2-difluoroethyl)-1H-pyrazolo[3,4-b]pyridin-5-yl]oxy]methyl)-2,4-difluorophenyl]-5-fluoro-2-methoxypyridine-3-sulfonamide], for which the half-maximal inhibitory concentration (IC50) is under 50 nM. The value for `COc1ncc(F)cc1S(=O)(=O)Nc1ccc(F)c(COc2cnc3[nH]nc(CCF)c3c2)c1F` [Compound 76, N-[2,4-difluoro-3-([[3-(2-fluoroethyl)-1H-pyrazolo[3,4-b]pyridin-5-yl]oxy]methyl)phenyl]-5-fluoro-2-methoxypyridine-3-sulfonamide] was under 50 nM; that for `Cc1ncc(F)cc1S(=O)(=O)Nc1ccc(Cl)c(COc2cnc3[nH]nc(C)c3c2)c1F` [Compound 77, N-(4-chloro-2-fluoro-3-(((3-methyl-1H-pyrazolo[3,4-b]pyridin-5-yl)oxy)methyl)phenyl)-5-fluoro-2-methylpyridine-3-sulfonamide] was under 50 nM. In the case of `COc1ncc(F)cc1S(=O)(=O)Nc1ccc(Cl)c(COc2cnc3[nH]nc(C)c3c2)c1F` [Compound 78, N-(4-chloro-2-fluoro-3-(((3-methyl-1H-pyrazolo[3,4-b]pyridin-5-yl)oxy)methyl)phenyl)-5-fluoro-2-methoxypyridine-3-sulfonamide] it was under 50 nM; in that of `COc1ncc(Cl)cc1S(=O)(=O)Nc1ncc(F)c(COc2cnc3[nH]nc(C)c3c2)c1Cl` [Compound 79, 5-chloro-N-[3-chloro-5-fluoro-4-[([3-methyl-1H-pyrazolo[3,4-b]pyridin-5-yl]oxy)methyl]pyridin-2-yl]-2-methoxypyridine-3-sulfonamide], under 50 nM; in that of `COc1ncc(F)cc1S(=O)(=O)Nc1ccc(F)c(COc2cnc3[nH]nc(CC(F)(F)F)c3c2)c1F` [Compound 80, N-[2,4-difluoro-3-([[3-(2,2,2-trifluoroethyl)-1H-pyrazolo[3,4-b]pyridin-5-yl]oxy]methyl)phenyl]-5-fluoro-2-methoxypyridine-3-sulfonamide], under 50 nM. The value for `COc1ncc(F)cc1S(=O)(=O)Nc1ccc(F)c(COc2cnc3[nH]nc(C(C)(F)F)c3c2)c1F` [Compound 81, N-[3-([[3-(1,1-difluoroethyl)-1H-pyrazolo[3,4-b]pyridin-5-yl]oxy]methyl)-2,4-difluorophenyl]-5-fluoro-2-methoxypyridine-3-sulfonamide] was under 50 nM.
